Test results published in PubChem BioAssay AID248 (DTP/NCI, 2004).
Where “and” joins values, the source holds several entries; their conditions need not be identical. Equal entries are not always repeated. Inconclusive results and toxic doses are left out. No stated cut-off is given here; in the data, active means T/C of 150% or more; inactive means T/C below 125%.

System: L1210 leukemia ip in BDF1 mice, survival T/C
Experiment: NCI In Vivo Anticancer Drug Screen. Data for tumor model L1210 Leukemia (intraperitoneal) in B6D2F1 (BDF1) mice
Conditions: endpoint: mean survival time, higher = longer survival
Summary of the method: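 Each compound was tested against a transplantable tumor grown in mice. The endpoint was survival, with treated animals benchmarked against vehicle controls as a simple ratio.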

[1] = dose: 50.0 mg/kg/injection, schedule: Q01DX001 (ip), vehicle: saline
[2] = dose: 100.0 mg/kg/injection, schedule: Q01DX001 (ip), vehicle: saline
[3] = dose: 200.0 mg/kg/injection, schedule: Q01DX001 (ip), vehicle: saline
[4] = dose: 400.0 mg/kg/injection, schedule: Q01DX001 (ip), vehicle: saline
[5] = dose: 100.0 mg/kg/injection, schedule: Q01DX009 (ip), vehicle: saline
[6] = dose: 100.0 mg/kg/injection, schedule: Q04DX003 (ip), vehicle: saline with Tween-80
[7] = dose: 200.0 mg/kg/injection, schedule: Q04DX003 (ip), vehicle: saline with Tween-80
[8] = dose: 400.0 mg/kg/injection, schedule: Q04DX003 (ip), vehicle: saline with Tween-80
[9] = dose: 100.0 mg/kg/injection, schedule: Q01DX009 (ip), vehicle: Klucel (hydroxypropylcellulose) (HPC)
[10] = dose: 200.0 mg/kg/injection, schedule: Q01DX009 (ip), vehicle: Klucel (hydroxypropylcellulose) (HPC)
[11] = dose: 400.0 mg/kg/injection, schedule: Q01DX009 (ip), vehicle: Klucel (hydroxypropylcellulose) (HPC)
[12] = dose: 100.0 mg/kg/injection, schedule: Q04DX003 (ip), vehicle: Klucel (hydroxypropylcellulose) (HPC)
[13] = dose: 100.0 mg/kg/injection, schedule: Q01DX001 (ip), vehicle: carboxymethylcellulose (CMC)
[14] = dose: 200.0 mg/kg/injection, schedule: Q01DX001 (ip), vehicle: carboxymethylcellulose (CMC)
[15] = dose: 400.0 mg/kg/injection, schedule: Q01DX001 (ip), vehicle: carboxymethylcellulose (CMC)
[16] = dose: 100.0 mg/kg/injection, schedule: Q04DX002 (ip), vehicle: saline
[17] = dose: 200.0 mg/kg/injection, schedule: Q04DX002 (ip), vehicle: saline
[18] = dose: 100.0 mg/kg/injection, schedule: Q01DX001 (ip), vehicle: saline with Tween-80
[19] = dose: 100.0 mg/kg/injection, schedule: Q01DX009 (ip), vehicle: saline with Tween-80
[20] = dose: 200.0 mg/kg/injection, schedule: Q01DX001 (ip), vehicle: saline with Tween-80
[21] = dose: 400.0 mg/kg/injection, schedule: Q01DX001 (ip), vehicle: saline with Tween-80
[22] = dose: 100.0 mg/kg/injection, schedule: Q04DX002 (ip), vehicle: saline with Tween-80
[23] = dose: 200.0 mg/kg/injection, schedule: Q04DX002 (ip), vehicle: saline with Tween-80
[24] = dose: 400.0 mg/kg/injection, schedule: Q04DX002 (ip), vehicle: saline with Tween-80

Measured: T/C

CC(=O)OCC1OC(n2cnc([N+](=O)[O-])c2C#N)C(OC(C)=O)C1OC(C)=O (stereo not given)
inactive: [1] 102 % of control | [2] 108 % of control | [3] 102 % of control | [4] 92 % of control

O=C(N/N=C/c1ccncc1)c1ccccc1
inactive: [5] 112 % of control | dose: 200.0 mg/kg/injection, schedule: Q01DX009 (ip), vehicle: saline 112 % of control

COc1ccc(/C=N/NC(=O)c2ccco2)cc1OC
inactive: dose: 100.0 mg/kg/injection, schedule: Q01DX001 (ip), vehicle: other 93 % of control | dose: 400.0 mg/kg/injection, schedule: Q01DX001 (ip), vehicle: other 96 % of control

O=C(NCCCl)NC1C(O)CCCC1O (stereo not given)
inactive: [2] 103 % of control | [3] 97 % of control | [4] 103 % of control

N/N=C(/C(=O)c1ccccc1)c1ccccc1
inactive: [2] 102 % of control | [6] 100 % of control | [3] 96 % of control | [7] 95 % of control | [4] 96 % of control | [8] 100 % of control

O=C(O)c1cccc(-n2cnc3c(=O)[nH]cnc32)c1
inactive: [1] 108 % of control | [2] 93 % of control | [3] 96 % of control | [4] 104 % of control

COc1ccccc1NC(=O)NCc1cc(C)ccc1C
inactive: [9] 93 % of control | [10] 88 % of control | [11] 93 % of control

CCCCNC(=O)c1n[se]nc1NC(N)=O
inactive: dose: 25.0 mg/kg/injection, schedule: Q01DX Z (ip), vehicle: carboxymethylcellulose (CMC) 91 % of control | dose: 37.5 mg/kg/injection, schedule: Q01DX Z (ip), vehicle: carboxymethylcellulose (CMC) 89 % of control | dose: 50.0 mg/kg/injection, schedule: Q01DX Z (ip), vehicle: carboxymethylcellulose (CMC) 90 % of control

Cc1cn(Cc2ccc(Cl)cc2Cl)c(C)n1
inactive: dose: 25.0 mg/kg/injection, schedule: Q01DX001 (ip), vehicle: Klucel (hydroxypropylcellulose) (HPC) 100 % of control | dose: 25.0 mg/kg/injection, schedule: Q01DX009 (ip), vehicle: Klucel (hydroxypropylcellulose) (HPC) 97 % of control and 109 % of control | dose: 50.0 mg/kg/injection, schedule: Q01DX001 (ip), vehicle: Klucel (hydroxypropylcellulose) (HPC) 100 % of control | dose: 50.0 mg/kg/injection, schedule: Q04DX002 (ip), vehicle: Klucel (hydroxypropylcellulose) (HPC) 102 % of control and 108 % of control | dose: 100.0 mg/kg/injection, schedule: Q01DX001 (ip), vehicle: Klucel (hydroxypropylcellulose) (HPC) 94 % of control

CN(CC(=O)NCCCCCCCCCCNC(=O)CN(C)C(=O)OCc1ccccc1)C(=O)OCc1ccccc1
inactive: dose: 10.0 mg/kg/injection, schedule: Q01DX Z (ip), vehicle: saline 94 % of control | dose: 30.0 mg/kg/injection, schedule: Q01DX Z (ip), vehicle: saline 88 % of control | dose: 100.0 mg/kg/injection, schedule: Q01DX Z (ip), vehicle: saline 91 % of control | dose: 300.0 mg/kg/injection, schedule: Q01DX Z (ip), vehicle: saline 88 % of control

O=S(=O)(O)SCCN1CCCCCCC1
inactive: [5] 95 % of control

C=CCc1ccc(OCCOCCNC2CC3CCC2(C)C3(C)C)c(OC)c1 (stereo not given)
inactive: [12] 89 % of control

O=c1[nH]nc(S(=O)(=O)N2CCCC2)c(=O)[nH]1
inactive: [13] 98 % of control | [14] 98 % of control | [15] 93 % of control

O=C(NCCCl)NN1CCCCC1
inactive: dose: 50.0 mg/kg/injection, schedule: Q04DX003 (ip), vehicle: Klucel (hydroxypropylcellulose) (HPC) 113 % of control | [12] 113 % of control | dose: 200.0 mg/kg/injection, schedule: Q04DX003 (ip), vehicle: Klucel (hydroxypropylcellulose) (HPC) 113 % of control

O=C(Nc1ccccc1)c1ccc2c(c1)C(=O)N(c1ccccc1)C2=O
inactive: [16] 90 % of control | [17] 87 % of control

S=C(N/N=C/C(c1ccccc1)c1ccccc1)Nc1ccccc1
inactive: [18] 95 % of control | [19] 86 % of control | [20] 102 % of control | [21] 98 % of control | dose: 400.0 mg/kg/injection, schedule: Q01DX009 (ip), vehicle: saline with Tween-80 86 % of control

CCCCOP(=S)(N1CCCCC1)N1CCCCC1
inactive: [22] 96 % of control | [23] 96 % of control | [24] 107 % of control

CC(=O)OC1C(SC(C)(C)C)C=CC(SC(C)(C)C)N1C(C)=O (stereo not given)
inactive: [9] 103 % of control | [10] 103 % of control | [11] 95 % of control

O=CNCC(=O)O
inactive: [16] 92 % of control | dose: 100.0 mg/kg/injection, schedule: Q04DX003 (ip), vehicle: saline 97 % of control | [17] 95 % of control | dose: 200.0 mg/kg/injection, schedule: Q04DX003 (ip), vehicle: saline 94 % of control | dose: 400.0 mg/kg/injection, schedule: Q04DX002 (ip), vehicle: saline 92 % of control | dose: 400.0 mg/kg/injection, schedule: Q04DX003 (ip), vehicle: saline 106 % of control

O=C(Nc1ccc2c3c(cccc13)CC2)c1cccc([N+](=O)[O-])c1
inactive: [18] 102 % of control | [20] 94 % of control | [21] 96 % of control

COc1cc2c(cc1OC)C1C(C)c3ccc(OC)c(OC)c3CN1CC2 (stereo not given)
inactive: [13] 100 % of control | [14] 100 % of control | [15] 96 % of control

CCCCCCCCCCCCCCCC(=O)ONC(N)=O
inactive: [18] 100 % of control | [20] 96 % of control | [21] 91 % of control

CN1CCCCC1c1ccccc1 (stereo not given)
inactive: dose: 75.0 mg/kg/injection, schedule: Q01DX001 (ip), vehicle: saline 103 % of control

CCCCC(CC)COC(=O)CCC(CCC(=O)OCC(CC)CCCC)C(=O)OCC(CC)CCCC (stereo not given)
inactive: dose: 100.0 mg/kg/injection, schedule: Q04DX003 (ip), vehicle: saline sonified 98 % of control | dose: 200.0 mg/kg/injection, schedule: Q04DX003 (ip), vehicle: saline sonified 104 % of control | dose: 400.0 mg/kg/injection, schedule: Q04DX003 (ip), vehicle: saline sonified 96 % of control

CCCC(=O)N1CCCCCC1
inactive: [22] 92 % of control | [23] 113 % of control | [24] 95 % of control

COC(=O)C1c2ccccc2-c2ccccc21
inactive: dose: 50.0 mg/kg/injection, schedule: Q01DX009 (ip), vehicle: saline with Tween-80 97 % of control | [19] 107 % of control | dose: 200.0 mg/kg/injection, schedule: Q01DX009 (ip), vehicle: saline with Tween-80 96 % of control

CCOC(=O)C(C#N)(C1C=CCC1)C1C=CCC1 (stereo not given)
inactive: [6] 100 % of control | [7] 100 % of control | [8] 100 % of control
